Results reported in PMC3401907, “Cellular Uptakes, Biostabilities and Anti-miR-210 Activities of Chiral Arginine-PNAs in Leukaemic K562 Cells” (Chembiochem, 2012).

Tests used:
γ-globin gene expression = γ-globin gene expression by RT-qPCR; format: cell-based, human; conditions: mithramycin-treated (15 nM) K562 cells, PNA 2 μM single administration, 72 h, n=3
Experimental: The strong inhibition of miR-210 by PNA2 and PNA4 might thus result in appreciable reduction of γ-globin gene expression.
Figure 6 A) Effects of pept-1, PNA1, PNA2 and PNA4 molecules (each 2 μM) on γ-globin content in K562 cell cultures for 72 h with MTH (15 nM). Data are reported as arbitrary units relative to cells treated with pept-1 and MTH (average±SD, n=3, *: p<0.05, **: p<0.01). B), C) Effects of treatment (72 h) with pept-1, PNA1, PNA2 and PNA4 molecules on K562 cells induced to erythroid differentiation by MTH (15 nM): B) summary of three independent experiments, C) a representative experiment showing staining of the cells with benzidine.
The nucleotide sequences used for real-time qPCR analysis of γ-globin mRNAs were γ-globin forward primer (5′-TGGCAA GAAGGT GCTGAC TTC-3′), γ-globin reverse primer (5′-TCACTC AGCTGG GCAAAG G-3′) and γ-globin probe (5′-FAM-TGGGAG ATGCCA TAAAGC ACCTGG-TAMRA-3′).[25] The relative expression was calculated by the comparative cycle threshold method with endogenous control human 18S rRNA as reference genes.[25]

[1] = test system: DNA2 (mismatched DNA, G→T); assay: Melting temperature (Tm) of PNA:DNA duplexes, single-mismatch DNA; format: binding; conditions: single mismatch; UV absorbance at 260 nm, PBS buffer pH 7 with urea 5 M, strand concentration 5 μM
From the text: (§1) Sequence selectivity is a very important issue in view of the use of PNAs in cellular systems, because partial hybridisation might occur with other unrelated miRNAs or, most importantly, with mRNA targets. We analysed the sequence selectivities of our PNAs with stricter models (DNA2 and RNA2) involving single base mismatches (G→T or G→U) located in the middle of the target sequences. In each case the sequence selectivity was confirmed by significant lowering of the melting temperature. The ranges of ΔTm due to the presence of these single mismatches were 8–21 °C for DNA, with the maximum drop in the case of PNA4 and the minimum observed in that of PNA6. For the latter it should be considered that the mismatch was facing the last chiral monomer, preventing the cooperative effect observed in the case of 2D-modifed highly constrained PNA.[22]
(§2) Measurements of Tm values: The Tm values were determined with a Lambda Bio 20 spectrophotometer and a Peltier PTP6 temperature programmer. Thermal denaturation profiles were measured by monitoring the absorbance at 260 nm from 18 to 90 °C with a heating rate of 1 °C min^−1 and recording every 0.1 °C. Measurement conditions: [PNA]=[DNA] or [RNA]=5 μM in PBS buffer [pH 7.0, NaCl (100 mM), NaH2PO4⋅H2O (10 mM), EDTA (0.1 mM)] with urea (5 M).

miR-210 [2] = assay: miR-210 content by RT-qPCR analysis; format: cell-based, human; conditions: K562 cells, 24 h; for inhibition of miR-210 bioavailability (miR-210 content): PNA 2 μM, Figure 5 A and B, relative to pept-1
Experimental: K562 cells were treated with 15 nM mithramycin in the presence of a PNA (2 μM), and after 24 h RNA was isolated and miR-210 was assayed by RT-qPCR analysis. This type of test has been used to evaluate miR content in many studies because it allows the free-miR content to be evaluated. […] Figure 5 A and B reports the obtained data, showing that inhibition of miR bioavailability was induced both with the modified PNA and with the peptide-conjugated one, whereas in the case of PNA1 it was unchanged. […] This might be related to inhibition of pre-miR maturation or to unavailability of the miR to the qRT-PCR analysis due to strong complexation with the PNA. In either case the bioavailability of the miR for targeting other genes should be reduced.
Transfection procedures: Anti-miR-210 PNAs were directly added to the cellular medium to reach the indicated final concentrations. K562 cells were cultured in 24-well plates starting from the initial density of 30 000 cells per mL. MTH was administrated together with anti-miR PNAs.
RNA extraction: Cells were isolated by centrifugation at 1500 rpm for 10 min at 4 °C, washed in PBS and lysed in Tri-reagent (Sigma–Aldrich) according to the manufacturer's instructions. The isolated RNA was washed once with cold ethanol (75 %), dried and dissolved in ultrapure nuclease-free water.
Real-time quantitative PCR: For microRNA quantification with real-time RT-PCR reagents, the primers and probes were obtained from Applied Biosystems. Reverse transcriptase (RT) reactions were performed with a TaqMan MicroRNA Reverse Transcription Kit (Applied Biosystems) for hsa-miR-210, hsa-miR-10a, hsa-miR-93, hsa-miR-99b, hsa-miR-126, hsa-miR-149, hsa-miR-424, hsa-miR-483-5p, hsa-miR-625, hsa-let-7c and the iQTM5 real-time PCR System Instrument (Bio-Rad). Relative expression was calculated by the comparative cycle threshold method and U6 microRNA was used as reference gene to normalise all RNA samples, because it is constant in the assayed samples by miR-profiling and quantitative RT-PCR analysis as previously reported.[25]

[3] = test system: RNA2 (mismatched RNA, G→U); assay: Melting temperature (Tm) of PNA:RNA duplexes, single-mismatch RNA; format: binding; conditions: UV absorbance at 260 nm, PBS buffer pH 7 with urea 5 M, strand concentration 5 μM
From the text: as §1, §2

[4] = test system: RNA1 (target region of miR-210); assay: Melting temperature (Tm) of PNA:RNA duplexes, full-match RNA; format: binding; conditions: UV absorbance at 260 nm, strand concentration 5 μM; for Tm, RNA1 in water: PBS buffer pH 7, no urea; for Tm, RNA1 in urea (5 M): PBS buffer pH 7 with urea 5 M
Experimental: (§3) Measurements of Tm values: The Tm values were determined with a Lambda Bio 20 spectrophotometer and a Peltier PTP6 temperature programmer. Thermal denaturation profiles were measured by monitoring the absorbance at 260 nm from 18 to 90 °C with a heating rate of 1 °C min^−1 and recording every 0.1 °C. […]

K562 cells [5] = conditions: cited from earlier work
Experimental: In order to determine the distributions of PNAs within target cells, analysis was performed with a fluorescence microscope. […] Low uptake was also found by fluorescence microscopy with PNA1.[25]

miR-210 [6] = conditions: cited from earlier work; for anti-miR activity: K562 cells, previously demonstrated
From the text: (§4) The first step necessary to achieve anti-miR activity in cells is effective cellular uptake.

[7] = test system: DNA1 (full-match antiparallel DNA); assay: Melting temperature (Tm) of PNA:DNA duplexes, full-match DNA; format: binding; conditions: UV absorbance at 260 nm, strand concentration 5 μM; for Tm, DNA1 in urea (5 M): PBS buffer pH 7 (NaCl 100 mM, NaH2PO4 10 mM, EDTA 0.1 mM) with urea 5 M; for Tm, DNA1 in water: PBS buffer pH 7, no urea, 18 to 90 °C at 1 °C/min
Experimental: as §3

K562 cells [8] = assay: Mithramycin-induced erythroid differentiation (benzidine-positive cells); format: cell-based, human; conditions: MTH 15 nM, PNA 2 μM, benzidine-positive cells after 5 days of induction, three independent experiments
Experimental: In order to evaluate effects on mithramycin-induced cellular differentiation, K562 cells were treated with MTH in the presence of pept-1, PNA1, PNA2 and PNA4 (each 2 μM). The proportions of benzidine-positive cells were determined after 5 days of induction.
Human cell lines and culture conditions: Human leukaemia K562 cells were cultured under humidified CO2 (5 %)/air in RPMI 1640 medium (Sigma) supplemented with foetal bovine serum (FBS, 10 %, Analitical de Mori, Milan, Italy), penicillin (50 units mL^−1) and streptomycin (50 μg mL^−1).[26] Mithramycin (MTH) was from Sigma. Stock solutions of MTH (100 μM) were stored at −20 °C in the dark and diluted immediately before use. Treatment of K562 cells with MTH was carried out by addition of the appropriate drug concentrations at the beginning of the cultures (cells were seeded at 30 000 mL^−1). The medium was not changed during the induction period. To determine antiproliferative activity, cell growth was studied by determining the cell number per mL with a Z1 Coulter Counter (Coulter Electronics, Hialeah, FL, USA). Erythroid differentiated K562 cells containing haemoglobin were detected by specific reaction with a benzidine/hydrogen peroxide solution as reported elsewhere.[26] The final concentration of benzidine was 0.2 % in glacial acetic acid (5 M) and H2O2 (10 %).

K562 cells [9] = conditions: previously demonstrated; cited from earlier work
From the text: as §4

H-CCGCTGTCACACGCACAG-NH2 [PNA1, unmodified achiral "naked" 18-mer PNA targeted against miR-210, reference compound]
effect on γ-globin gene expression (γ-globin gene expression): did not show appreciable effects
Tm, DNA2 in urea (5 M) [1]: 58 °C
inhibition of miR-210 bioavailability (miR-210 content) (miR-210 [2]): unchanged
Tm, RNA2 in urea (5 M) [3]: 62 °C
Tm, RNA1 in water [4]: 88 °C
Tm, RNA1 in urea (5 M) [4]: 77 °C
uptake by fluorescence microscopy (K562 cells [5]): Low uptake
anti-miR activity (miR-210 [6]): no activity
Tm, DNA1 in urea (5 M) [7]: 70 °C
Tm, DNA1 in water [7]: 85 °C

H-R8CCGCTGTCACACGCACAG-NH2 [PNA2, 18-mer anti-miR-210 PNA conjugated with octaarginine (R8) peptide, reference compound]
effect on γ-globin gene expression (γ-globin gene expression): inhibited γ-globin gene expression
effect on MTH-induced erythroid differentiation (K562 cells [8]): able to inhibit erythroid differentiation
Tm, DNA2 in urea (5 M) [1]: 68 °C
miR-210 inhibition upon treatment with mithramycin (miR-210 [2]; PNA 2 μM with MTH 15 nM, relative to pept-1 and MTH): best results
inhibition of miR-210 bioavailability (miR-210 content) (miR-210 [2]): Stronger inhibition
Tm, RNA2 in urea (5 M) [3]: 73 °C
Tm, RNA1 in water [4]: >90 °C
Tm, RNA1 in urea (5 M) [4]: 88 °C
anti-miR activity (miR-210 [6]): pronounced anti-miR activity
selectivity of miR-210 inhibition versus other miRs (miR-210 [6]; previously found): inhibit miR-210 selectively
internalisation within K562 cells (K562 cells [9]): efficiently internalised
Tm, DNA1 in urea (5 M) [7]: 80 °C
Tm, DNA1 in water [7]: >90 °C
